ChEMBL document CHEMBL1131475, “Discovery of ritonavir, a potent inhibitor of HIV protease with high oral bioavailability and clinical efficacy” (J Med Chem, 1998)

How the values were obtained:
in vivo [1] = conditions: rat, plasma, iv
[2] = Oral bioavailability in rat; format: ADME, organism-based; conditions: in vivo
in vivo [3] = conditions: rat, plasma, po
in vivo [4] = conditions: rat, plasma, po; remark: listed apart in the source
in vivo [5] = conditions: rat, plasma, po, 10 mg/kg

SMILES	half-life (in vivo [1]) [min]	bioavailability [2] [%]	AUC (in vivo [3]) [ng·h/mL]	Tmax (in vivo [4]) [min]	Cmax (in vivo [5]) [nM]	F [2] [%]
CC(C)c1cccc(COC(=O)NC(C(=O)N[C@@H](Cc2ccccc2)C[C@H](O)[C@H](Cc2ccccc2)NC(=O)OCc2cccnc2)C(C)C)n1 (stereo partly drawn)	34.2	5.6	140	15	200	–
CCc1nc(CN(C)C(=O)NC(C(=O)N[C@@H](Cc2ccccc2)[C@@H](O)C[C@H](Cc2ccccc2)NC(=O)OCc2cncs2)C(C)C)cs1 (stereo partly drawn)	–	–	9370	60	5120	167
CC(C)c1nc(CCC(=O)NC(C(=O)N[C@@H](Cc2ccccc2)C[C@H](O)[C@H](Cc2ccccc2)NC(=O)OCc2cccnc2)C(C)C)cs1 (stereo partly drawn)	16.8	3.4	170	6	380	–
CC(C)c1cccc(COC(=O)NC(C(=O)N[C@@H](Cc2ccccc2)[C@@H](O)C[C@H](Cc2ccccc2)NC(=O)OCc2cccnc2)C(C)C)n1 (stereo partly drawn)	78.6	8.3	310	15	310	–
CCc1nc(COC(=O)NC(C(=O)N[C@@H](Cc2ccccc2)C[C@H](O)[C@H](Cc2ccccc2)NC(=O)OCc2cccnc2)C(C)C)cs1 (stereo partly drawn)	45	7.4	330	9	1300	–
CCc1cccc(COC(=O)NC(C(=O)N[C@@H](Cc2ccccc2)C[C@H](O)[C@H](Cc2ccccc2)NC(=O)OCc2cccnc2)C(C)C)n1 (stereo partly drawn)	23.4	8	470	12	590	–
CCc1ncc(COC(=O)NC(C(=O)N[C@@H](Cc2ccccc2)[C@@H](O)C[C@H](Cc2ccccc2)NC(=O)OCc2cccnc2)C(C)C)s1 (stereo partly drawn)	73.8	9.2	490	16.8	340	–
Cc1cccc(COC(=O)NC(C(=O)N[C@@H](Cc2ccccc2)[C@@H](O)C[C@H](Cc2ccccc2)NC(=O)OCc2ccoc2)C(C)C)n1 (stereo partly drawn)	13.2	0	–	–	–	–
CC(C)c1nc(CCC(=O)NC(C(=O)N[C@@H](Cc2ccccc2)[C@@H](O)C[C@H](Cc2ccccc2)NC(=O)OCc2cccnc2)C(C)C)cs1 (stereo partly drawn)	54.6	9	410	6	320	–
COCc1ncc(COC(=O)NC(C(=O)N[C@@H](Cc2ccccc2)[C@@H](O)C[C@H](Cc2ccccc2)NC(=O)OCc2cccnc2)C(C)C)s1 (stereo partly drawn)	22.2	11	420	9	380	–
CC(C)c1csc(COC(=O)NC(C(=O)N[C@@H](Cc2ccccc2)C[C@H](O)[C@H](Cc2ccccc2)NC(=O)OCc2cncs2)C(C)C)n1 (stereo partly drawn)	30	–	14300	55.2	5800	151
CC(NC(=O)OCc1csc(C(C)C)n1)C(=O)N[C@@H](Cc1ccccc1)C[C@H](O)[C@H](Cc1ccccc1)NC(=O)OCc1cncs1 (stereo partly drawn)	31.8	19	1230	24	1090	–
CC(C)c1nc(CN(C)C(=O)NCCC(=O)N[C@@H](Cc2ccccc2)C[C@H](O)[C@H](Cc2ccccc2)NC(=O)OCc2cncs2)cs1	57.6	7.1	190	6	630	–
CC(C)C(NC(=O)OCc1ccccn1)C(=O)N[C@@H](Cc1ccccc1)[C@@H](O)C[C@H](Cc1ccccc1)NC(=O)OCc1cncnc1 (stereo partly drawn)	30	6.7	280	12	1180	–
CC(C)C(NC(=O)OCc1csc(N2CCOCC2)n1)C(=O)N[C@@H](Cc1ccccc1)[C@@H](O)C[C@H](Cc1ccccc1)NC(=O)OCc1cccnc1 (stereo partly drawn)	21	1.1	30	9	90	–
CC(C)C(NC(=O)OCc1csc(N2CCOCC2)n1)C(=O)N[C@@H](Cc1ccccc1)C[C@H](O)[C@H](Cc1ccccc1)NC(=O)OCc1cccnc1 (stereo partly drawn)	19.2	0	–	–	–	–
CCc1nc(COC(=O)NC(C(=O)N[C@@H](Cc2ccccc2)[C@@H](O)C[C@H](Cc2ccccc2)NC(=O)OCc2cccnc2)C(C)C)cs1 (stereo partly drawn)	29.4	9.5	420	6	990	–
CC(C)C(NC(=O)N(C)Cc1csc(C2CC2)n1)C(=O)N[C@@H](Cc1ccccc1)[C@@H](O)C[C@H](Cc1ccccc1)NC(=O)OCc1cncs1 (stereo partly drawn)	31.8	–	10700	138	3980	175

Other lines, results leading:

half-life (in vivo [1]) [min]	bioavailability [2] [%]	AUC (in vivo [3]) [ng·h/mL]	Tmax (in vivo [4]) [min]	Cmax (in vivo [5]) [nM]	F [2] [%]	SMILES
15	1.3	50	6	290	–	COc1ccc(COC(=O)NC(C(=O)N[C@@H](Cc2ccccc2)C[C@H](O)[C@H](Cc2ccccc2)NC(=O)OCc2cccnc2)C(C)C)nc1 (stereo partly drawn)
12	2.4	100	12	500	–	CC(C)C(NC(=O)OCc1cnccn1)C(=O)N[C@@H](Cc1ccccc1)C[C@H](O)[C@H](Cc1ccccc1)NC(=O)OCc1cccnc1 (stereo partly drawn)
23.4	8	490	12	1350	–	COCc1nc(CN(C)C(=O)NC(C(=O)N[C@@H](Cc2ccccc2)C[C@H](O)[C@H](Cc2ccccc2)NC(=O)OCc2cccnc2)C(C)C)cs1 (stereo partly drawn)
39	6.4	270	9	780	–	Cc1ccc(COC(=O)NC(C(=O)N[C@@H](Cc2ccccc2)C[C@H](O)[C@H](Cc2ccccc2)NC(=O)OCc2cccnc2)C(C)C)cn1 (stereo partly drawn)
22.8	1.6	70	9	330	–	Cc1cncc(COC(=O)NC(C(=O)N[C@@H](Cc2ccccc2)C[C@H](O)[C@H](Cc2ccccc2)NC(=O)OCc2cccnc2)C(C)C)c1 (stereo partly drawn)
10.8	2.8	70	12	350	–	Cc1cnc(COC(=O)NC(C(=O)N[C@@H](Cc2ccccc2)[C@@H](O)C[C@H](Cc2ccccc2)NC(=O)OCc2cccnc2)C(C)C)cn1 (stereo partly drawn)
21	13	870	12	2910	–	CC(C)C(NC(=O)N(C)Cc1ccccn1)C(=O)N[C@@H](Cc1ccccc1)[C@@H](O)C[C@H](Cc1ccccc1)NC(=O)OCc1cncnc1 (stereo partly drawn)
25.8	10	480	6	2060	–	Cc1ncc(COC(=O)NC(C(=O)N[C@@H](Cc2ccccc2)C[C@H](O)[C@H](Cc2ccccc2)NC(=O)OCc2cccnc2)C(C)C)nc1C (stereo partly drawn)
31.8	9.7	310	6	690	–	Cc1cncc(CN(C)C(=O)NC(C(=O)N[C@@H](Cc2ccccc2)C[C@H](O)[C@H](Cc2ccccc2)NC(=O)OCc2cccnc2)C(C)C)c1 (stereo partly drawn)
61.8	12	530	19.8	980	–	CC(C)c1nc(CN(C)C(=O)NC(C(=O)N[C@@H](Cc2ccccc2)C[C@H](O)[C@H](Cc2ccccc2)NC(=O)OCc2cccnc2)C(C)C)cs1 (stereo partly drawn)
